Structures are written as SMILES.

Assay [1] deals with IP6K1 (Homo sapiens (Human), UniProt Q92551). Description: IP6K1 IC50 of compounds of Formula (IA) and Formula (IB). It counts as biochemical.
The test system of assay [2] is Mice treated with HFD. The note with it: HFD 8 weeks then daily intraperitoneal 20 mg/kg TNP and HFD for 18 days; cited from earlier work.

IP6K1, sequence (Q92551 whole entry, species assumed): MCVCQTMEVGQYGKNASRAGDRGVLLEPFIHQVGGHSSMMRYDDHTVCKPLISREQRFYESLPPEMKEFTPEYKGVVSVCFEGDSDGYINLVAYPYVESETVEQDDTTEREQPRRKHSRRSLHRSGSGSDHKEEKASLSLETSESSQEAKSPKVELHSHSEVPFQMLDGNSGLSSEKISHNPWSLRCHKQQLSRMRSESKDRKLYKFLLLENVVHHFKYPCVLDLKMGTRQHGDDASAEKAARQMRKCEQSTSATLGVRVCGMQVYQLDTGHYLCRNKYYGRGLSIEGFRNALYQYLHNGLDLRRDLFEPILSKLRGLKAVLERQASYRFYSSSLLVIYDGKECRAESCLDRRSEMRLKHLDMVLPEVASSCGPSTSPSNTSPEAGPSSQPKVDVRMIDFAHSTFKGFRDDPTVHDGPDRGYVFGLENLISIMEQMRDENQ

As for `O=C(O)c1ccc2c(c1)C1(CCN(S(=O)(=O)c3ccc(Cl)cc3)CC1)C(=O)N2` [Cmpd 1a, 1′-((4-chlorophenyl)sulfonyl)-2-oxospiro[indoline-3,4′-piperidine]-5-carboxylic acid], the “IP6K1 IC50” value in assay [1] is “+ +”.

For the compound `O=C(O)c1ccc2[nH]c(=O)n(C3CCN(C(=O)c4ccccc4Cl)CC3)c2c1` [Cmpd 1b, 3-(1-(2-chlorobenzoyl)piperidin-4-yl)-2-oxo-2,3-dihydro-1H-benzo[d]imidazole-5-carboxylic acid], the “IP6K1 IC50” value in assay [1] is “+ +”.

Regarding `O=C(O)c1ccc2c(c1)C1(CCN(C(=O)c3ccc(Cl)cc3)CC1)C(=O)N2` [Cmpd 2a, 1′-(4-chlorobenzoyl)-2-oxospiro[indoline-3,4′-piperidine]-5-carboxylic acid], the “IP6K1 IC50” value in assay [1] was “+ + +”.

Turning to `COC(=O)c1ccc2c(c1)C1(CCN(C(=O)c3ccc(Cl)cc3)CC1)C(=O)N2` [Cmpd 3a, Methyl 1′-(4-chlorobenzoyl)-2-oxospiro[indoline-3,4′-piperidine]-5-carboxylate], the IC50 (as a rule, the concentration that inhibits the measured activity by half) in assay [1] is 3 to 30 µM.

Regarding `O=C(O)c1ccc2[nH]c(=O)n(C3CCN(C(=O)c4ccc(Cl)cc4Cl)CC3)c2c1` [Cmpd 3b, 3-(1-(2,4-dichlorobenzoyl)piperidin-4-yl)-2-oxo-2,3-dihydro-1H-benzo[d]imidazole-5-carboxylic acid], in assay [1], the “IP6K1 IC50” value is on record as “+ + +”.

As for `O=C(O)c1ccc2c(c1)C1(CCN(C(=O)Cc3ccc(Cl)cc3)CC1)C(=O)N2` [Cmpd 4a, 1′-(2-(4-chlorophenyl)acetyl)-2-oxospiro[indoline-3,4′-piperidine]-5-carboxylic acid], the “IP6K1 IC50” value in assay [1] is “+ +”.

Regarding `O=C(O)c1ccc2c(c1)C1(CCN(Cc3ccc(Cl)cc3)CC1)C(=O)N2` [Cmpd 5a, 1′-(4-chlorobenzyl)-2-oxospiro[indoline-3,4′-piperidine]-5-carboxylic acid], in assay [1], the “IP6K1 IC50” value was “+ +”.

Turning to `O=C(O)c1ccc2[nH]c(=O)n([C@H]3CC[C@H](Oc4ncc(Cl)cc4Cl)CC3)c2c1` [Cmpd 5b, 3-((1r,4r)-4-((3,5-dichloropyridin-2-yl)oxy)cyclohexyl)-2-oxo-2,3-dihydro-1H-benzo[d]imidazole-5-carboxylic acid], in assay [1], the “IP6K1 IC50” value was “+ + +”.

On to `O=C(O)c1ccc2c(c1)C1(CCN(C(=O)c3ncc(Cl)cc3Cl)CC1)C(=O)N2` [Cmpd 6a, 1′-(3,5-dichloropicolinoyl)-2-oxospiro[indoline-3,4′-piperidine]-5-carboxylic acid], for which the “IP6K1 IC50” value in assay [1] is reported as “+ + +”.

In the case of `O=C(O)c1ccc2[nH]c(=O)n([C@H]3CC[C@@H](Oc4ncc(Cl)cc4Cl)CC3)c2c1` [Cmpd 6b, 3-((1s,4s)-4-((3,5-dichloropyridin-2-yl)oxy)cyclohexyl)-2-oxo-2,3-dihydro-1H-benzo[d]imidazole-5-carboxylic acid], the “IP6K1 IC50” value in assay [1] was “+ + +”.

Regarding `O=C(O)c1ccc2c(c1)C1(CCN(C(=O)Nc3ccc(Cl)cc3)CC1)C(=O)N2` [Cmpd 7a, 1′-((4-chlorophenyl)carbamoyl)-2-oxospiro[indoline-3,4′-piperidine]-5-carboxylic acid], in assay [1], the “IP6K1 IC50” value is given as “+ + +”.

On to `O=C(O)c1cc2c(cc1F)[nH]c(=O)n2[C@H]1CC[C@H](Oc2ncc(Cl)cc2Cl)CC1` [Cmpd 7b, 3-((1r,4r)-4-((3,5-dichloropyridin-2-yl)oxy)cyclohexyl)-6-fluoro-2-oxo-2,3-dihydro-1H-benzo[d]imidazole-5-carboxylic acid], for which, in assay [1], the “IP6K1 IC50” value is given as “+ + +”.

Consider `O=C(O)c1ccc2c(c1)C1(CCN(C(=O)c3ccc(C(F)(F)F)cc3)CC1)C(=O)N2` [Cmpd 8a, 2-oxo-1′-(4-(trifluoromethyl)benzoyl)spiro[indoline-3,4′-piperidine]-5-carboxylic acid], for which the “IP6K1 IC50” value in assay [1] is “+ + +”.

`O=C(O)c1ccc2[nH]c(=O)n(CCOc3ccc(Cl)cc3)c2c1` [Cmpd 8b, 3-(2-(4-chlorophenoxy)ethyl)-2-oxo-2,3-dihydro-1H-benzo[d]imidazole-5-carboxylic acid]: the “IP6K1 IC50” value in assay [1] is given as “+ +”.

On to `O=C(O)c1ccc2c(c1)C1(CCN(C(=O)COc3ccc(Cl)cc3)CC1)C(=O)N2` [Cmpd 9a, 1′-(2-(4-chlorophenoxy)acetyl)-2-oxospiro[indoline-3,4′-piperidine]-5-carboxylic acid], for which the “IP6K1 IC50” value in assay [1] is recorded as “+ +”.

Turning to `O=C(O)c1ccc2[nH]c(=O)n(CCCOc3ncc(Cl)cc3Cl)c2c1` [Cmpd 9b, 3-(3-((3,5-dichloropyridin-2-yl)oxy)propyl)-2-oxo-2,3-dihydro-1H-benzo[d]imidazole-5-carboxylic acid], in assay [1], the “IP6K1 IC50” value is “+ + +”.

Regarding `O=C(O)c1ccc2c(c1)C1(CCN(C(=O)C3CC3)CC1)C(=O)N2` [Cmpd 10a, 1′-(cyclopropanecarbonyl)-2-oxospiro[indoline-3,4′-piperidine]-5-carboxylic acid], the IC50 in assay [1] was in the range of 3 to 30 µM.

On to `O=C(O)c1ccc2[nH]c(=O)n(C3CN(C(=O)c4ccc(Cl)cc4Cl)C3)c2c1` [Cmpd 10b, 3-(1-(2,4-dichlorobenzoyl)azetidin-3-yl)-2-oxo-2,3-dihydro-1H-benzo[d]imidazole-5-carboxylic acid], for which, in assay [1], the “IP6K1 IC50” value is recorded as “+ +”.

As for `O=C(O)c1ccc2[nH]c(=O)n(C3CN(Cc4ccc(Cl)cc4Cl)C3)c2c1` [Cmpd 11b, 3-(1-(2,4-dichlorobenzyl)azetidin-3-yl)-2-oxo-2,3-dihydro-1H-benzo[d]imidazole-5-carboxylic acid], in assay [1], the “IP6K1 IC50” value is “+ +”.

Compound `CC(=O)N1CCC2(CC1)C(=O)Nc1ccc(C(=O)O)cc12` [Cmpd 12a, 1′-acetyl-2-oxospiro[indoline-3,4′-piperidine]-5-carboxylic acid] showed an IC50 in assay [1] of 3 to 30 µM.

On to `O=C(O)c1ccc2[nH]c(=O)n([C@H]3CCN(C(=O)c4ccc(Cl)cc4Cl)C3)c2c1` [Cmpd 12b, (S)-3-(1-(2,4-dichlorobenzoyl)pyrrolidin-3-yl)-2-oxo-2,3-dihydro-1H-benzo[d]imidazole-5-carboxylic acid], for which, in assay [1], the “IP6K1 IC50” value is listed as “+ +”.

Regarding `CC(C)C(=O)N1CCC2(CC1)C(=O)Nc1ccc(C(=O)O)cc12` [Cmpd 13a, 1′-isobutyryl-2-oxospiro[indoline-3,4′-piperidine]-5-carboxylic acid], the IC50 in assay [1] was 3 to 30 µM.

In the case of `O=C(O)c1ccc2[nH]c(=O)n([C@H]3CCN(Cc4ccc(Cl)cc4Cl)C3)c2c1` [Cmpd 13b, (S)-3-(1-(2,4-dichlorobenzyl)pyrrolidin-3-yl)-2-oxo-2,3-dihydro-1H-benzo[d]imidazole-5-carboxylic acid], the “IP6K1 IC50” value in assay [1] was “+ +”.

Take `O=C(O)c1ccc2c(c1)C1(CCN(C(=O)c3ccccc3Cl)CC1)C(=O)N2` [Cmpd 14a, 1′-(2-chlorobenzoyl)-2-oxospiro[indoline-3,4′-piperidine]-5-carboxylic acid]: the “IP6K1 IC50” value in assay [1] was “+ +”.

As to `O=C(O)c1ccc2[nH]c(=O)n([C@@H]3CCN(C(=O)c4ccc(Cl)cc4Cl)C3)c2c1` [Cmpd 14b, (R)-3-(1-(2,4-dichlorobenzoyl)pyrrolidin-3-yl)-2-oxo-2,3-dihydro-1H-benzo[d]imidazole-5-carboxylic acid], in assay [1], the “IP6K1 IC50” value was “+ +”.

As to `O=C(O)c1ccc2c(c1)C1(CCN(Cc3ccccc3Cl)CC1)C(=O)N2` [Cmpd 15a, 1′-(2-chlorobenzyl)-2-oxospiro[indoline-3,4′-piperidine]-5-carboxylic acid], the “IP6K1 IC50” value in assay [1] is given as “+ +”.

As to `O=C(O)c1ccc2[nH]c(=O)n([C@@H]3CCN(Cc4ccc(Cl)cc4Cl)C3)c2c1` [Cmpd 15b, (R)-3-(1-(2,4-dichlorobenzyl)pyrrolidin-3-yl)-2-oxo-2,3-dihydro-1H-benzo[d]imidazole-5-carboxylic acid], the “IP6K1 IC50” value in assay [1] is reported as “+ +”.

On to `O=C(O)c1ccc2c(c1)[nH]c(=O)n2C1CCN(C(=O)c2ccc(Cl)cc2Cl)CC1` [Cmpd 16b, 1-(1-(2,4-dichlorobenzoyl)piperidin-4-yl)-2-oxo-2,3-dihydro-1H-benzo[d]imidazole-5-carboxylic acid], for which the “IP6K1 IC50” value in assay [1] was “+ +”.

Consider `O=C(O)c1ccc2c(c1)C1(CCN(C(=O)c3ccc(Cl)cc3Cl)CC1)C(=O)N2` [Cmpd 17a, 1′-(2,4-dichlorobenzoyl)-2-oxospiro[indoline-3,4′-piperidine]-5-carboxylic acid], for which, in assay [1], the “IP6K1 IC50” value is on record as “+ + +”.

In assay [1], `O=C(O)c1ccc2[nH]c(=O)n(CC3CCN(Cc4ccc(Cl)cc4Cl)C3)c2c1` (stereo not drawn) [Cmpd 18b, 3-((1-(2,4-dichlorobenzyl)pyrrolidin-3-yl)methyl)-2-oxo-2,3-dihydro-1H-benzo[d]imidazole-5-carboxylic acid] displayed an IC50 of 3 to 30 µM.

As to `O=C(O)c1ccc2[nH]c(=O)n(CC3CCN(C(=O)c4ccc(Cl)cc4Cl)C3)c2c1` (stereo not drawn) [Cmpd 19b, 3-((1-(2,4-dichlorobenzoyl)pyrrolidin-3-yl)methyl)-2-oxo-2,3-dihydro-1H-benzo[d]imidazole-5-carboxylic acid], the “IP6K1 IC50” value in assay [1] is given as “+ +”.

`O=[N+]([O-])c1ccc(CNc2nc(NCc3cccc(C(F)(F)F)c3)nc3nc[nH]c23)cc1` [TNP, N2-(m-trifluorobenzyl)-N6-(p-nitrobenzyl)purine]: in assay [2], the “glucose tolerance and insulin sensitivity” value is recorded as “improved”; the serum insulin levels result is recorded as “lower”.

The record behind these values is patent publication US20250197396A1, “COMPOUNDS FOR INHIBITING INOSITOL HEXAKISPHOSPHATE KINASE (IP6K) AND METHODS OF USE THEREOF” (Lieber Institute, Inc., priority 2020, published 2025).
